One data set concerns the target GLP-1R (Homo sapiens (Human), UniProt P43220). The data set can be described thus: GLP-1R activation: cAMP increase in CHO cells stably expressing GLP-1R. In kind it is cell-based. The conditions noted are these: cAMP increase, 10 point dose response, 30 minutes incubation at 37° C., read-out: EC50. In a few lines: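 CHO cells stably expressing GLP-1R were incubated 1 h at 37 °C in medium with 1% BSA, then exposed to compound in a 10-point dose response for 30 min at 37 °C. cAMP rise was detected by HTRF (Gs Dynamic kit). EC50 came from a sigmoidal fit of response against log agonist concentration.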

Data set [1] is described as follows: Microsomal stability (liver microsomal assay, mixed cofactors); predicted hepatic clearance. Format: in vitro ADME. The settings on record: liver microsomes 1.0 mg protein/mL (+UDPGA +NADPH), 1 μM analyte, 37° C.; scaled with human liver weight and hepatic blood flow 1.3 L/hr/kg. In a few lines:
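Compound at 1 μM with human or rat pooled liver microsomes, alamethicin-treated, pH 7.4 phosphate, NADPH-regenerating plus UDPGA cofactors, 37° C, sampled 0–70 min. Parent/internal standard ratio by RapidFire QToF MS; half-life from initial log-linear decay, scaled to intrinsic and predicted hepatic clearance and hepatic extraction.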

In general, EC50 refers to the concentration needed to bring the measured effect to its halfway point.

Sequence of GLP-1R (P43220 24-463): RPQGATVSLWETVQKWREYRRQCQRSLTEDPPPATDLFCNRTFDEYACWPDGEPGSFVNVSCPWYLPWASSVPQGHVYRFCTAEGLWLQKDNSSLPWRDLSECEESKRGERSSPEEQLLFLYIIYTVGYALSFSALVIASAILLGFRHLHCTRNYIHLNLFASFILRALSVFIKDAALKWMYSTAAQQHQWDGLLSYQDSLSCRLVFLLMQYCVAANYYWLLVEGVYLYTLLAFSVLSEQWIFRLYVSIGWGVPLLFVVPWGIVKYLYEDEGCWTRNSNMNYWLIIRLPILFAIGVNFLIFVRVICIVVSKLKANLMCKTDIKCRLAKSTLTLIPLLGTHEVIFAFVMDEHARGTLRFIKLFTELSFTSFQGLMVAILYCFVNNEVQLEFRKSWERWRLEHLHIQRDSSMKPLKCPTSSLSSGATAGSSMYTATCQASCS

Turning to `CC1(c2ccc(Cl)cc2F)Oc2cccc(-c3cc(F)c(Cc4nc5ccc(C(=O)O)nc5n4CC4(CF)CC4)c(F)c3)c2O1` (stereo not shown) [Example 21, 2-(4-(2-(4-chloro-2-fluorophenyl)-2-methylbenzo[d][1, 3]dioxol-4-yl)-2,6-difluorobenzyl)-3-((1-(fluoromethyl)cyclo-propyl)methyl)-3H-imidazo[4,5-b]pyridine-5-carboxylic acid], the 50% effective concentration (EC50) at GLP-1R is 0.86 nM. Moreover, the “Predicted Hepatic Clearance (Pred. Cl.)” value in data set [1] is under 1.83 mL/min/kg.

For the compound `CC1(c2ccc(Cl)cc2F)Oc2cccc(-c3cc(F)c(Cc4nc5ccc(C(=O)O)cc5n4CC4(CC#N)CC4)c(F)c3)c2O1` (stereo not shown) [Example 1, 2-(4-(2-(4-chloro-2-fluorophenyl)-2-methylbenzo[d][1, 3]dioxol-4-yl)-2,6-difluorobenzyl)-1-((1-(cyanomethyl)cyclo-propyl)methyl)-1H-benzo[d]imidazole-6-carboxylic acid], the EC50 on GLP-1R was 0.51 nM. Besides, the “Predicted Hepatic Clearance (Pred. Cl.)” value in data set [1] is under 1.83 mL/min/kg.

Turning to `COCCn1c(Cc2c(F)cc(-c3cccc4c3OC(C)(c3ccc(C(F)(F)F)cc3F)O4)cc2F)nc2ccc(C(=O)O)cc21` (stereo not shown) [Example 58, 2-(2,6-difluoro-4-(2-(2-fluoro-4-(trifluoromethyl)phenyl)-2-methylbenzo[d][1, 3]dioxol-4-yl)benzyl)-1-(2-methoxyethyl)-1H-benzo[d]imidazole-6-carboxylic acid], the EC50 at GLP-1R was found to be 6.3 nM. In addition, the “Predicted Hepatic Clearance (Pred. Cl.)” value in data set [1] was 3.17 mL/min/kg.

Regarding `COCCn1c(Cc2ccc(-c3cccc4c3OC(c3ccccc3)O4)cc2F)nc2ccc(C(=O)O)cc21` (stereo not shown) [Example 32, 2-(2-fluoro-4-(2-phenylbenzo[d][1, 3]dioxol-4-yl)benzyl)-1-(2-methoxyethyl)-1H-benzo[d]imidazole-6-carboxylic acid], the EC50 at GLP-1R came to 1920 nM. Besides, the “Predicted Hepatic Clearance (Pred. Cl.)” value in data set [1] is 6.33 mL/min/kg.

With `CC1(c2ccc(Cl)cc2F)Oc2cccc(-c3cc(F)c(Cc4nc5c(F)cc(C(=O)O)cc5n4CC4(CC(N)=O)CC4)c(F)c3)c2O1` (stereo not shown) [Example 9, 1-((1-(2-amino-2-oxoethyl)cyclopro-pyl)methyl)-2-(4-(2-(4-chloro-2-fluorophenyl)-2-methylbenzo[d][1, 3]dioxol-4-yl)-2,6-difluorobenzyl)-4-fluoro-1H-benzo[d]imidazole-6-carboxylic acid], the EC50 on GLP-1R came out at 8.6 nM. For the same compound, the “Predicted Hepatic Clearance (Pred. Cl.)” value in data set [1] is 2.5 mL/min/kg.

`COCCn1c(Cc2c(F)cc(-c3cccc4c3OC(C)(c3ccc(Cl)cn3)O4)cc2F)nc2ccc(C(=O)O)cc21` (stereo not shown) [Example 65, 2-(4-(2-(5-chloropyridin-2-yl)-2-methylbenzo[d][1, 3]dioxol-4-yl)-2,6-difluorobenzyl)-1-(2-methoxyethyl)-1H-benzo[d]imidazole-6-carboxylic acid]: the EC50 at GLP-1R turned out to be 10 nM. Further, the “Predicted Hepatic Clearance (Pred. Cl.)” value in data set [1] is 3.3 mL/min/kg.

Consider `CC1(c2ccc(Cl)cc2F)Oc2cccc(-c3ccc(Cc4nc5ccc(C(=O)O)cc5n4CC4(n5ccnn5)CC4)c(F)c3)c2O1` (stereo not shown) [Example 109, 1-((1-(1H-1,2,3-triazol-1-yl)cyclopropyl)methyl)-2-(4-(2-(4-chloro-2-fluorophenyl)-2-methylbenzo[d][1, 3]dioxol-4-yl)-2-fluorobenzyl)-1H-benzo[d]imidazole-6-carboxylic acid], for which the EC50 on GLP-1R came to 9.1 nM. Besides, in data set [1], the “Predicted Hepatic Clearance (Pred. Cl.)” value is 2.5 mL/min/kg.

On to `COCCn1c(Cc2cc(F)c(-c3cccc4c3OC(C)(c3ccc(C#N)cc3F)O4)cc2F)nc2ccc(C(=O)O)cc21` (stereo not shown) [Example 81, 2-(4-(2-(4-cyano-2-fluorophenyl)-2-methylbenzo[d][1, 3]dioxol-4-yl)-2,5-difluorobenzyl)-1-(2-methoxyethyl)-1H-benzo[d]imidazole-6-carboxylic acid], for which the EC50 on GLP-1R was 26 nM. Moreover, the “Predicted Hepatic Clearance (Pred. Cl.)” value in data set [1] was 8.67 mL/min/kg.

The values are drawn from patent publication US20250099431A1, “GLP-1R MODULATING COMPOUNDS” (priority 2020, published 2025).
